This is an account of results in ChEMBL document CHEMBL1133392, “Synthesis of a dihydroxythiophene analogue of catechosporines” (2000).

The test system of one test is Pseudomonas aeruginosa. Kind of test: In vitro for minimum inhibitory concentration against Pseudomonas aeruginosa (40 strains). Format: functional.
A further test deals with Staphylococcus aureus. Kind of test: In vitro minimum inhibitory concentration against Staphylococcus aureus (20 strains). Format: functional.

SMILES strings stand for the structures. Converted amounts (≈) assume the structure as drawn.

As to `N#Cc1cc(C(O/N=C(\C(=O)N[C@@H]2C(=O)N3C(C(=O)[O-])C(/C=C/C[n+]4cccc5ccsc54)CS[C@H]23)c2csc(N)n2)C(=O)O)cc(O)c1O` (stereo partly drawn), the MIC – broadly, the least concentration at which growth counts as inhibited – in the test on Pseudomonas aeruginosa was 0.06 µg/mL (≈ 0.0815 µM); against Staphylococcus aureus, 1.4 µg/mL (≈ 1.9 µM).

Regarding `N#Cc1sc(C(O/N=C(\C(=O)N[C@@H]2C(=O)N3C(C(=O)[O-])C(/C=C/C[n+]4cccc5ccccc54)CS[C@H]23)c2csc(N)n2)C(=O)O)c(O)c1O` (stereo partly drawn), the results for the MIC with Pseudomonas aeruginosa and against Staphylococcus aureus were 38 µg/mL (≈ 51.6 µM) and 0.17 µg/mL (≈ 0.231 µM), respectively.

Take `N#Cc1ccc(C(O/N=C(\C(=O)N[C@@H]2C(=O)N3C(C(=O)[O-])C(/C=C/C[n+]4cccc5ccsc54)CS[C@H]23)c2csc(N)n2)C(=O)O)c(O)c1O` (stereo partly drawn): the MIC in the test with Pseudomonas aeruginosa was 0.12 µg/mL (≈ 0.163 µM); in the test on Staphylococcus aureus, 3.6 µg/mL (≈ 4.89 µM).

Take `Nc1nc(/C(=N/OC(C(=O)O)c2cc(O)c(O)cn2)C(=O)N[C@@H]2C(=O)N3C(C(=O)[O-])C(/C=C/C[n+]4cccc5ccsc54)CS[C@H]23)cs1` (stereo partly drawn): the MIC against Pseudomonas aeruginosa amounted to 3.12 µg/mL (≈ 4.38 µM); with Staphylococcus aureus, 0.92 µg/mL (≈ 1.29 µM).
